Data: patent US20100113430A1, “THIOXANTHENE DERIVATES USEFUL TO TREAT INFECTIOUS DISEASES” (BKG PHARMA APS, priority 2007, published 2010)
Converted amounts (≈) assume the structure as drawn.

Tests used:
Format in all cases: cell-based
[1] = test system: Candida glabrata clinical isolates; assay: MIC (90% growth inhibition), broth microdilution NCCLS M27-A, Candida glabrata
Method: Cell growth was tested using the Minimal Inhibitory Concentration (MIC) susceptibility tests by use of the microdilution broth method in accordance to the NCCLS Guidelines (NCCLS Guidelines, Methods for Dilution Antimicrobial Susceptibility Tests for Bacteria That Grow Aerobically; Approved Standard, Sixth Edition, Volume 23; Number 2). The minimum inhibitory concentration (MIC), is defined ad the lowest concentration of drug which inhibits growth of the test organism, in the sense that no visible growth is detected (total inhibition of growth). In example 2 MIC of the compounds used on fungal microorganisms was determined from the IC90 measurements according to NCCLS Guidelines. […]
4 clinical isolates of Candida sp. (including 3 fluconazole resistant isolates) were subcultured for 24 h on Sabouraud glucose agar before susceptibility testing. Broth microdilution tests were performed according to NCCLS document M27-A (Ref: National Committee for Clinical Laboratory Standards. (1997). Reference Method for Broth Dilution Antifungal Susceptibility Testing of Yeasts: Approved Standard M27-A. NCCLS, Wayne, Pa.). Microtitre plates were read spectrophotometrically at 530 nm, after mixing the wells by pipetting to resuspend yeast sediments. In this experiment, the MIC was defined as the lowest drug dilution resulting in 90% growth inhibition.

[2] = test system: Staphylococci, Micrococci. Including MRSA; assay: MIC/IC90 broad spectrum, Staphylococci and Micrococci; conditions: 30 strains, 20 resistant (20 MRSA)
Method: (§1) Cell growth was tested using the Minimal Inhibitory Concentration (MIC) susceptibility tests by use of the microdilution broth method in accordance to the NCCLS Guidelines (NCCLS Guidelines, Methods for Dilution Antimicrobial Susceptibility Tests for Bacteria That Grow Aerobically; Approved Standard, Sixth Edition, Volume 23; Number 2). The minimum inhibitory concentration (MIC), is defined ad the lowest concentration of drug which inhibits growth of the test organism, in the sense that no visible growth is detected (total inhibition of growth). In example 2 MIC of the compounds used on fungal microorganisms was determined from the IC90 measurements according to NCCLS Guidelines.
(§2) A log phase culture of bacteria was diluted with fresh pre-warmed Mueller-Hinton medium and adjusted to a defined OD at 600 nm in order to give a final concentration of 1×10^4-5 bacteria/ml medium. The bacterial culture was transferred to microtiter-plates and culture was added to each well. Drug was added to the bacterial culture in the wells as two-fold dilution series of drug in order to give final concentrations ranging from 0.03 to 128 μg/ml. Trays were incubated at 37° C. by shaking in a robot analyzer, PowerWavex, software KC^4′ Kebo.Lab, Copenhagen, for 16 h and optical densities were measured at 600 nm during the incubation time in order to record growth curves. Wells containing bacterial culture without drug were used as controls to ensure correct inoculum size and bacterial growth during the incubation. Cultures were tested in order to detect contaminations. Each experiment was repeated in triplicate. MIC values represent the mean values of two separate triplicate experiments. Intra- and interassay variation was <5%.
Inhibition 90 (IC90) is defined as: OD responding a 90% growth inhibition.
A broad spectrum of bacteria were cultured and assayed as described above for susceptibility towards N-dealkyl-clopenthixol.

[3] = test system: Enterococcus faecium resistant clinical isolates; assay: MIC/IC90, resistant clinical isolates of Enterococcus faecium
Method: as §1, §2
Inhibition 90 (IC90) is defined as: OD responding a 90% growth inhibition. […]
Clinically relevant isolates were cultured and assayed as described above.

[4] = test system: Candida glabrata Multiresistant isolate; assay: MIC of cis- and trans-forms, Candida glabrata multiresistant isolate; conditions: Example 4
Method: as §1
Cultured microorganisms were assayed as described above. Cis- and trans-isomers of N-dealkyl-clopenthixol was added to the cultures.

[5] = test system: clinically relevant resistant bacterial isolate S. Aureus; assay: Growth inhibition by cis/trans combinations, resistant isolate S. Aureus; conditions: Trans-compound 0.5 μg/ml, Cis-compound 0 μg/ml
Method: as §1
as §2, with “Wells containing bacterial culture without drug were used as controls to ensure correct inoculum size and bacterial growth during the incubation. Cultures were tested in order to detect contaminations. Each experiment was repeated in triplicate. MIC values represent the mean values of two separate triplicate experiments. Intra- and interassay variation was <5%.” left out

HIV-1 strain HTLV-IIIB = assay: Inhibition of HIV-1 replication in MT4 cells (MTT assay); conditions: HIV-1 IIIB 0.005 MOI, six days
Method: The antiviral effect of N-dealkyl-trans-flupenthixol and N-dealkyl-trans-clopenthixol was studied by checkerboard studies exposing HIV infected cells to 0-3 μM of trans-clopenthixol. Each experiment was repeated in triple duplicate. MIC values represent the mean values of two separate experiments.
The HIV-1 strain HTLV-IIIB were propagated in H9 cells at 37° C., 5% CO2 using RPMI 1640 with 10% heat-inactivated foetal calf serum (FCS) and antibiotics (growth medium). Culture supernatant was filtered ([…]), aliquoted, and stored at −80° C. until use. The HIV-1 strain was obtained from NIH AIDS Research and Reference Program.
Compounds were examined for possible antiviral activity against strain IIIB of HIV-1 using MT4 cells as target cells. MT4 cells were incubated with virus (0.005 MOI) and growth medium containing the test dilutions of compound(s) for six days in parallel with virus-infected and uninfected control cultures without compound added. Expression of HIV in the cultures was indirectly quantified using the MTT assay as previously described. Compounds mediating less than 30% reduction of HIV expression were considered without biological activity. […] The 50% inhibitory concentration was determined by interpolation from the plots of percent inhibition versus concentration of compound. […]

[6] = test system: resistant and susceptible clinical bacterial isolates; assay: Susceptibility of resistant versus susceptible bacterial isolates (Example 3); conditions: isolates of Tables 3a and 3b
Method: as §1
as §2, with “Wells containing bacterial culture without drug were used as controls to ensure correct inoculum size and bacterial growth during the incubation. Cultures were tested in order to detect contaminations. Each experiment was repeated in triplicate. MIC values represent the mean values of two separate triplicate experiments. Intra- and interassay variation was <5%.” left out

[7] = Enterococcus faecium 16, BLR, CR

For `Clc1ccc2c(c1)/C(=C/CCN1CCNCC1)c1ccccc1S2` [N-dealkyl-trans-clopenthixol, trans-1-(3-(2-chloro-thioxanthen-9-ylidene)propyl)piperazine], the MIC ([1]; strain 2. Candida glabrata FR (fluconazole resistant)) was 1 µg/mL (≈ 2.8 µM), the MIC ([1]; strain 4. Candida glabrata FR (fluconazole resistant)) was 0.5 µg/mL (≈ 1.4 µM) and the MIC ([1]; strain 5. Candida glabrata) was 0.5 µg/mL (≈ 1.4 µM). For the same compound, the “IC90 (mean)” value [2] was 0.5 µg/mL (≈ 1.4 µM), the “MIC (mean)” value [2] was 1 µg/mL (≈ 2.8 µM) and the MIC range [2] was 0.5 to 2 µg/mL. The IC90 ([3]; Enterococcus faecium 11, VanA) was 0.6 µg/mL (≈ 1.68 µM), the MIC ([3]; Enterococcus faecium 11, VanA) was 1 µg/mL (≈ 2.8 µM) and the IC90 ([3]; Enterococcus faecium 12, VanA) was 0.6 µg/mL (≈ 1.68 µM). It also gave an MIC ([3]; Enterococcus faecium 12, VanA) of 1 µg/mL (≈ 2.8 µM), an IC90 ([3]; Enterococcus faecium 13, VanB) of 0.5 µg/mL (≈ 1.4 µM) and an MIC ([3]; Enterococcus faecium 13, VanB) of 1 µg/mL (≈ 2.8 µM). It also gave an IC90 ([3]; Enterococcus faecium 14, HLAR) of 0.5 µg/mL (≈ 1.4 µM), an MIC ([3]; Enterococcus faecium 14, HLAR) of 1 µg/mL (≈ 2.8 µM) and an IC90 ([3]; Enterococcus faecium 15, HLAR) of 0.5 µg/mL (≈ 1.4 µM). The MIC ([3]; Enterococcus faecium 15, HLAR) was 1 µg/mL (≈ 2.8 µM), the IC90 [3, 7] was 0.6 µg/mL (≈ 1.68 µM) and the MIC [3, 7] was 1 µg/mL (≈ 2.8 µM). It also gave an IC90 ([3]; Enterococcus faecium 17, VanB) of 0.5 µg/mL (≈ 1.4 µM), an MIC ([3]; Enterococcus faecium 17, VanB) of 1 µg/mL (≈ 2.8 µM) and an IC90 ([3]; Enterococcus faecium 18, VanB) of 0.6 µg/mL (≈ 1.68 µM). The MIC ([3]; Enterococcus faecium 18, VanB) was 1 µg/mL (≈ 2.8 µM), the IC90 ([3]; Enterococcus faecium 19, VanB) was 0.6 µg/mL (≈ 1.68 µM) and the MIC ([3]; Enterococcus faecium 19, VanB) was 1 µg/mL (≈ 2.8 µM). The MIC ([3]; Enterococcus faecium multiresistant isolate, Example 4) was 0.5 µg/mL (≈ 1.4 µM), the MIC [4] was 1.0 µg/mL and the Growth inhibition [5] was 100%. The EC50 (HIV-1 strain HTLV-IIIB) was 2000 nM and the “difference in susceptibility between resistant and susceptible isolates” value [6] was “No difference in susceptibility”.
